From US20100204258A1, “METHODS AND COMPOSITIONS FOR MODULATING INSULIN SECRETION AND GLUCOSE METABOLISM” (The Trustees of Columbia University in the City of New York, priority 2007, published 2010)
“Also recorded” adds a separate entry of the source.

Key:
[1] = tested on: dopamine content of brain and pancreas tissue; test: Dopamine content of brain and pancreas extracts by ELISA after i.v. TBZ; format: in vivo, rat
Experimental: Dopamine measurements. Anaesthetized rats received an intravenous injection of TBZ and were sacrificed one hour later. Euthanasia was performed by exsanguination of the anesthetized animal. Brain and pancreas were harvested as quickly as possible and frozen at −80° C. until use. Frozen tissue was pulverized in a liquid nitrogen cooled mortar and extracted in 0.01 N HCl. The tissue extract was centrifuged at 10,000×g at 4° C. to remove debris and the total protein was estimated by reading the absorbance at 280 nm. The concentration of dopamine in the extract was estimated using an ELISA kit from Rocky Mountain Diagnostics (Colorado Springs, Colo.) per the manufacturer's instructions and normalized to the extract protein concentration.

[2] = tested on: Lewis rats; test: IPGTT with TBZ, emetine and Compound 6 (FIG. 12); format: in vivo, rat; conditions: single dose 2-3 mg/kg body weight
Experimental: Experimental animals. All animal studies were conducted as described in Example 1. […] Rats received injections of vehicle alone (10% DMSO in saline) or reserpine (in saline). Animals recovered fully before receiving IPGTT. Blood glucose, insulin, glucagon and intraperitoneal glucose tolerance tests measurements. […] The fasting blood glucose (BG) levels of the rats were measured using an Accu-Check blood glucose monitoring system (Roche Diagnostics, Sommerville, N.J.). Intraperitoneal glucose tolerance tests (IPGTT) were performed in 6 hour fasting un-anaesthetized animals. Briefly, after baseline BG measurements, animals received an intraperitoneal (i.p.) injection of 1 gram glucose/kilogram body weight. To minimize stress during the procedure, rats were handled by the same operator during acclimatization and later during weighing and IPGTT. Blood samples (approximately 30 μl) were collected at baseline and then again 15, 30, 45, 60, 90, and 120 minutes following i.p. glucose. BG concentrations were measured immediately on these samples and the remainder processed.

[3] = 1.6 μg/gm body weight i.v., one hour later (FIG. 3)
[4] = one hour after injection of 10 μg/gm body weight

COc1cc2c(cc1OC)C1CC(=O)C(CC(C)C)CN1CC2 (stereo not drawn) [TBZ, tetrabenazine]
dopamine content of brain tissue [1, 3]: reduces the dopamine content | dopamine content of pancreas tissue [1, 3]: reduces the dopamine content | dopamine content of brain [1, 4]: significantly depleted | dopamine content of pancreas [1, 4]: significantly depleted | blood glucose excursion during IPGTT [2]: consistently reduced the blood glucose excursion | area under the curve from IPGTT ([2]; separate experiments): depress the area under the curve; also recorded: consistently suppressed the area under the curve
